Test results from PubChem BioAssay (NCI).
Values joined by “and” are separate entries in the source; they are usually repeats but may differ in a detail not shown here. Identical values can stand only once.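 1) Cells in 96-well plates. 2) Compound, 48 h, 5 concentrations. 3) Linear interpolation between surrounding doses. 4) Unreached endpoint = highest concentration. Here, GI50 denotes the concentration required for 50% inhibition of growth. TGI: concentration producing complete growth inhibition.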

Tests used:
Assay in all cases: NCI-60 cell line screen, 48 h
786-0 renal = tested on: 786-0 renal
A498 renal = tested on: A498 renal
A549 NSCLC = tested on: A549 NSCLC
ACHN renal = tested on: ACHN renal
BT-549 breast = tested on: BT-549 breast
CAKI-1 renal = tested on: CAKI-1 renal
CCRF-CEM leukemia = tested on: CCRF-CEM leukemia
COLO 205 colon = tested on: COLO 205 colon
DU-145 prostate = tested on: DU-145 prostate
EKVX NSCLC = tested on: EKVX NSCLC
HCC-2998 colon = tested on: HCC-2998 colon
HCT-116 colon = tested on: HCT-116 colon
HCT-15 colon = tested on: HCT-15 colon
HL-60(TB) leukemia = tested on: HL-60(TB) leukemia
HOP-62 NSCLC = tested on: HOP-62 NSCLC
HOP-92 NSCLC = tested on: HOP-92 NSCLC
HS 578T breast = tested on: HS 578T breast
HT29 colon = tested on: HT29 colon
IGROV1 ovarian = tested on: IGROV1 ovarian
K-562 leukemia = tested on: K-562 leukemia
KM12 colon = tested on: KM12 colon
LOX IMVI melanoma = tested on: LOX IMVI melanoma
M14 melanoma = tested on: M14 melanoma
MALME-3M melanoma = tested on: MALME-3M melanoma
MCF7 breast = tested on: MCF7 breast
MDA-MB-231 breast = tested on: MDA-MB-231 breast
MDA-MB-435 = tested on: MDA-MB-435
MDA-N = tested on: MDA-N
MOLT-4 leukemia = tested on: MOLT-4 leukemia
NCI-H226 lung = tested on: NCI-H226 lung
NCI-H23 lung = tested on: NCI-H23 lung
NCI-H460 lung = tested on: NCI-H460 lung
NCI-H522 lung = tested on: NCI-H522 lung
NCI/ADR-RES ovarian = tested on: NCI/ADR-RES ovarian
OVCAR-3 ovarian = tested on: OVCAR-3 ovarian
OVCAR-4 ovarian = tested on: OVCAR-4 ovarian
OVCAR-5 ovarian = tested on: OVCAR-5 ovarian
OVCAR-8 ovarian = tested on: OVCAR-8 ovarian
PC-3 prostate = tested on: PC-3 prostate
RPMI-8226 leukemia = tested on: RPMI-8226 leukemia
RXF 393 renal = tested on: RXF 393 renal
SF-268 CNS = tested on: SF-268 CNS
SF-295 CNS = tested on: SF-295 CNS
SF-539 CNS = tested on: SF-539 CNS
SK-MEL-2 melanoma = tested on: SK-MEL-2 melanoma
SK-MEL-28 melanoma = tested on: SK-MEL-28 melanoma
SK-MEL-5 melanoma = tested on: SK-MEL-5 melanoma
SK-OV-3 ovarian = tested on: SK-OV-3 ovarian
SN12C renal = tested on: SN12C renal
SNB-19 CNS = tested on: SNB-19 CNS
SNB-75 CNS = tested on: SNB-75 CNS
SR leukemia = tested on: SR leukemia
SW-620 colon = tested on: SW-620 colon
T-47D breast = tested on: T-47D breast
TK-10 renal = tested on: TK-10 renal
U251 CNS = tested on: U251 CNS
UACC-257 melanoma = tested on: UACC-257 melanoma
UACC-62 melanoma = tested on: UACC-62 melanoma
UO-31 renal = tested on: UO-31 renal

**Q.** `CN(C)CCCN1c2ccccc2CCc2cc([N+](=O)[O-])ccc21` was tested. Which TGI (786-0 renal) did it give?
**A.** The TGI was 66 µM and 28.9 µM.

**Q.** And the TGI (A498 renal)?
**A.** The TGI was 61.4 µM and 25.8 µM.

**Q.** And the TGI (A549 NSCLC)?
**A.** The TGI was 70.2 µM and 37.7 µM.

**Q.** And the TGI (ACHN renal)?
**A.** Its TGI is 90.4 µM and 30 µM.

**Q.** And the TGI (BT-549 breast)?
**A.** The TGI was 45 µM and 31.3 µM.

**Q.** What about the TGI (CAKI-1 renal) of the same compound?
**A.** The TGI was 59.7 µM and 32.2 µM.

**Q.** What about the GI50 (CCRF-CEM leukemia) of the same compound?
**A.** The GI50 was 43.8 µM and 10.7 µM.

**Q.** And the TGI (CCRF-CEM leukemia)?
**A.** Its TGI is > 100 µM and 27 µM.

**Q.** And the TGI (COLO 205 colon)?
**A.** Its TGI is 60.1 µM and 32.4 µM.

**Q.** What about the TGI (DU-145 prostate) of the same compound?
**A.** Its TGI is 58.9 µM and 34.6 µM.

**Q.** What about the TGI (EKVX NSCLC) of the same compound?
**A.** Its TGI is > 100 µM and 37.4 µM.

**Q.** And the TGI (HCC-2998 colon)?
**A.** The TGI was 34.1 µM and 25.2 µM.

**Q.** And the TGI (HCT-116 colon)?
**A.** The TGI was 41 µM and 29.7 µM.

**Q.** And the TGI (HCT-15 colon)?
**A.** The TGI was 83.3 µM and 37.4 µM.

**Q.** And the GI50 (HL-60(TB) leukemia)?
**A.** The GI50 was 19.2 µM and 2.83 µM.

**Q.** And the TGI (HL-60(TB) leukemia)?
**A.** Its TGI is 54 µM and 9.46 µM.

**Q.** What about the TGI (HOP-62 NSCLC) of the same compound?
**A.** Its TGI is 48.6 µM and 30 µM.

**Q.** And the GI50 (HOP-92 NSCLC)?
**A.** Its GI50 is 21.8 µM and 7.69 µM.

**Q.** What about the TGI (HOP-92 NSCLC) of the same compound?
**A.** The TGI was 58.1 µM and 22.6 µM.

**Q.** What about the TGI (HS 578T breast) of the same compound?
**A.** Its TGI is 71.9 µM and 34.3 µM.

**Q.** And the TGI (HT29 colon)?
**A.** The TGI was 41.6 µM and 32.8 µM.

**Q.** What about the TGI (IGROV1 ovarian) of the same compound?
**A.** The TGI was 53.2 µM and 29.8 µM.

**Q.** What about the TGI (K-562 leukemia) of the same compound?
**A.** The TGI was > 100 µM and 38.6 µM.

**Q.** What about the TGI (KM12 colon) of the same compound?
**A.** Its TGI is 71 µM and 35.1 µM.

**Q.** What about the TGI (LOX IMVI melanoma) of the same compound?
**A.** Its TGI is 37.2 µM and 28.2 µM.

**Q.** What about the TGI (M14 melanoma) of the same compound?
**A.** Its TGI is 38.1 µM and 31.1 µM.

**Q.** What about the TGI (MALME-3M melanoma) of the same compound?
**A.** Its TGI is 33.8 µM and 32.9 µM.

**Q.** What about the TGI (MCF7 breast) of the same compound?
**A.** The TGI was 79 µM and 31.8 µM.

**Q.** What about the TGI (MDA-MB-231 breast) of the same compound?
**A.** The TGI was 52.7 µM and 30.2 µM.

**Q.** What about the TGI (MDA-MB-435) of the same compound?
**A.** Its TGI is 48.4 µM and 31.1 µM.

**Q.** What about the TGI (MDA-N) of the same compound?
**A.** The TGI was 45.3 µM and 29.1 µM.

**Q.** And the TGI (MOLT-4 leukemia)?
**A.** The TGI was > 100 µM and 35.9 µM.

**Q.** And the TGI (NCI-H226 lung)?
**A.** The TGI was 68 µM and 32.6 µM.

**Q.** What about the TGI (NCI-H23 lung) of the same compound?
**A.** Its TGI is 54.1 µM and 36.7 µM.

**Q.** And the TGI (NCI-H460 lung)?
**A.** Its TGI is 41.7 µM and 29.8 µM.

**Q.** What about the TGI (NCI-H522 lung) of the same compound?
**A.** Its TGI is 60.6 µM and 31 µM.

**Q.** What about the TGI (NCI/ADR-RES ovarian) of the same compound?
**A.** The TGI was 82 µM and 39.8 µM.

**Q.** And the TGI (OVCAR-3 ovarian)?
**A.** The TGI was 48.4 µM and 34.8 µM.

**Q.** And the TGI (OVCAR-4 ovarian)?
**A.** Its TGI is 69.5 µM and 40.5 µM.

**Q.** And the TGI (OVCAR-5 ovarian)?
**A.** Its TGI is 63.9 µM and 31.8 µM.

**Q.** What about the TGI (OVCAR-8 ovarian) of the same compound?
**A.** Its TGI is 71.8 µM and 30 µM.

**Q.** And the TGI (PC-3 prostate)?
**A.** Its TGI is 76.8 µM and 34.3 µM.

**Q.** And the TGI (RPMI-8226 leukemia)?
**A.** Its TGI is 52.6 µM and 41.2 µM.

**Q.** And the TGI (RXF 393 renal)?
**A.** Its TGI is 32.8 µM and 26 µM.

**Q.** And the TGI (SF-268 CNS)?
**A.** The TGI was 52.5 µM and 28.8 µM.

**Q.** What about the TGI (SF-295 CNS) of the same compound?
**A.** The TGI was 45.1 µM and 28.4 µM.

**Q.** And the TGI (SF-539 CNS)?
**A.** The TGI was 74.5 µM and 31.4 µM.

**Q.** What about the TGI (SK-MEL-2 melanoma) of the same compound?
**A.** Its TGI is 39.4 µM and 38.8 µM.

**Q.** And the GI50 (SK-MEL-28 melanoma)?
**A.** Its GI50 is 28.2 µM and 13.9 µM.

**Q.** What about the TGI (SK-MEL-28 melanoma) of the same compound?
**A.** Its TGI is 80.9 µM and 28.2 µM.

**Q.** What about the TGI (SK-MEL-5 melanoma) of the same compound?
**A.** Its TGI is 31.2 µM and 25.7 µM.

**Q.** What about the GI50 (SK-OV-3 ovarian) of the same compound?
**A.** Its GI50 is 38.7 µM and 17.3 µM.

**Q.** And the TGI (SK-OV-3 ovarian)?
**A.** Its TGI is > 100 µM and 32.6 µM.

**Q.** What about the TGI (SN12C renal) of the same compound?
**A.** The TGI was 60.9 µM and 30.4 µM.

**Q.** And the TGI (SNB-19 CNS)?
**A.** The TGI was > 100 µM and 31.7 µM.

**Q.** And the TGI (SNB-75 CNS)?
**A.** The TGI was 26.4 µM.

**Q.** What about the TGI (SR leukemia) of the same compound?
**A.** Its TGI is 90.6 µM and 44 µM.

**Q.** And the GI50 (SW-620 colon)?
**A.** Its GI50 is 37.2 µM and 16.3 µM.

**Q.** And the TGI (SW-620 colon)?
**A.** The TGI was > 100 µM and 32.6 µM.

**Q.** What about the TGI (T-47D breast) of the same compound?
**A.** The TGI was 43.9 µM and 37.7 µM.

**Q.** And the TGI (TK-10 renal)?
**A.** Its TGI is 69 µM and 27.8 µM.

**Q.** And the TGI (U251 CNS)?
**A.** The TGI was 64.2 µM and 32.9 µM.

**Q.** What about the TGI (UACC-257 melanoma) of the same compound?
**A.** Its TGI is 38 µM and 29.5 µM.

**Q.** What about the TGI (UACC-62 melanoma) of the same compound?
**A.** Its TGI is 29.2 µM and 27.5 µM.

**Q.** What about the TGI (UO-31 renal) of the same compound?
**A.** The TGI was 70.8 µM and 28.7 µM.
